Assay results from PubChem BioAssay (NCI).
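96-well plates; 48 h exposure; 5 concentrations. Endpoints by linear interpolation between flanking doses. Not reached: highest tested concentration assigned. TGI marks complete inhibition of growth.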

What was measured:
Assay in all cases: NCI tumour cell line growth inhibition, 48 h
A549 NSCLC = tested on: A549 NSCLC
OVCAR-5 ovarian = tested on: OVCAR-5 ovarian
NCI-H23 lung = tested on: NCI-H23 lung
OVCAR-8 ovarian = tested on: OVCAR-8 ovarian
DU-145 prostate = tested on: DU-145 prostate
SK-MEL-28 melanoma = tested on: SK-MEL-28 melanoma
CAKI-1 renal = tested on: CAKI-1 renal
SNB-75 CNS = tested on: SNB-75 CNS
RPMI-8226 leukemia = tested on: RPMI-8226 leukemia
UO-31 renal = tested on: UO-31 renal
SK-OV-3 ovarian = tested on: SK-OV-3 ovarian
U251 CNS = tested on: U251 CNS
SK-MEL-5 melanoma = tested on: SK-MEL-5 melanoma
SK-MEL-2 melanoma = tested on: SK-MEL-2 melanoma
OVCAR-4 ovarian = tested on: OVCAR-4 ovarian
K-562 leukemia = tested on: K-562 leukemia
BT-549 breast = tested on: BT-549 breast
ACHN renal = tested on: ACHN renal
MOLT-4 leukemia = tested on: MOLT-4 leukemia
MALME-3M melanoma = tested on: MALME-3M melanoma
SF-268 CNS = tested on: SF-268 CNS
NCI-H522 lung = tested on: NCI-H522 lung
A498 renal = tested on: A498 renal
HCT-116 colon = tested on: HCT-116 colon
UACC-257 melanoma = tested on: UACC-257 melanoma
UACC-62 melanoma = tested on: UACC-62 melanoma
MCF7 breast = tested on: MCF7 breast
CCRF-CEM leukemia = tested on: CCRF-CEM leukemia
EKVX NSCLC = tested on: EKVX NSCLC
TK-10 renal = tested on: TK-10 renal
SR leukemia = tested on: SR leukemia
NCI-H460 lung = tested on: NCI-H460 lung
OVCAR-3 ovarian = tested on: OVCAR-3 ovarian
MDA-MB-435 = tested on: MDA-MB-435
LOX IMVI melanoma = tested on: LOX IMVI melanoma
SW-620 colon = tested on: SW-620 colon
MDA-MB-231 breast = tested on: MDA-MB-231 breast
IGROV1 ovarian = tested on: IGROV1 ovarian
PC-3 prostate = tested on: PC-3 prostate
SF-295 CNS = tested on: SF-295 CNS
COLO 205 colon = tested on: COLO 205 colon
KM12 colon = tested on: KM12 colon
NCI/ADR-RES ovarian = tested on: NCI/ADR-RES ovarian
HCT-15 colon = tested on: HCT-15 colon
SF-539 CNS = tested on: SF-539 CNS
HS 578T breast = tested on: HS 578T breast
HOP-92 NSCLC = tested on: HOP-92 NSCLC
SNB-19 CNS = tested on: SNB-19 CNS
HOP-62 NSCLC = tested on: HOP-62 NSCLC
HT29 colon = tested on: HT29 colon
T-47D breast = tested on: T-47D breast
MDA-N = tested on: MDA-N
SN12C renal = tested on: SN12C renal
HL-60(TB) leukemia = tested on: HL-60(TB) leukemia
M14 melanoma = tested on: M14 melanoma
NCI-H226 lung = tested on: NCI-H226 lung
786-0 renal = tested on: 786-0 renal

O=C1CC(n2cccc2)c2cc(Br)sc21 (configuration not stated)
TGI (A549 NSCLC): > 100 µM | TGI (OVCAR-5 ovarian): > 100 µM | TGI (NCI-H23 lung): > 100 µM | TGI (OVCAR-8 ovarian): > 100 µM | TGI (DU-145 prostate): > 100 µM | TGI (SK-MEL-28 melanoma): > 100 µM | TGI (CAKI-1 renal): > 100 µM | TGI (SNB-75 CNS): > 100 µM | TGI (RPMI-8226 leukemia): 69.9 µM | TGI (UO-31 renal): > 100 µM | TGI (SK-OV-3 ovarian): > 100 µM | TGI (U251 CNS): > 100 µM | TGI (SK-MEL-5 melanoma): > 100 µM | TGI (SK-MEL-2 melanoma): > 100 µM | TGI (OVCAR-4 ovarian): > 100 µM | TGI (K-562 leukemia): > 100 µM | TGI (BT-549 breast): > 100 µM | TGI (ACHN renal): > 100 µM | TGI (MOLT-4 leukemia): 87 µM | TGI (MALME-3M melanoma): > 100 µM | TGI (SF-268 CNS): > 100 µM | TGI (NCI-H522 lung): 75.5 µM | TGI (A498 renal): > 100 µM | TGI (HCT-116 colon): > 100 µM | TGI (UACC-257 melanoma): > 100 µM | TGI (UACC-62 melanoma): > 100 µM | TGI (MCF7 breast): > 100 µM | TGI (CCRF-CEM leukemia): 60 µM | TGI (EKVX NSCLC): > 100 µM | TGI (TK-10 renal): > 100 µM | TGI (SR leukemia): > 100 µM | TGI (NCI-H460 lung): > 100 µM | TGI (OVCAR-3 ovarian): > 100 µM | TGI (MDA-MB-435): > 100 µM | TGI (LOX IMVI melanoma): > 100 µM | TGI (SW-620 colon): > 100 µM | TGI (MDA-MB-231 breast): > 100 µM | TGI (IGROV1 ovarian): > 100 µM | TGI (PC-3 prostate): > 100 µM | TGI (SF-295 CNS): > 100 µM | TGI (COLO 205 colon): > 100 µM | TGI (KM12 colon): > 100 µM | TGI (NCI/ADR-RES ovarian): > 100 µM | TGI (HCT-15 colon): > 100 µM | TGI (SF-539 CNS): > 100 µM | TGI (HS 578T breast): > 100 µM | TGI (HOP-92 NSCLC): > 100 µM | TGI (SNB-19 CNS): > 100 µM | TGI (HOP-62 NSCLC): > 100 µM | TGI (HT29 colon): > 100 µM | TGI (T-47D breast): > 100 µM | TGI (MDA-N): > 100 µM | TGI (SN12C renal): > 100 µM | TGI (HL-60(TB) leukemia): > 100 µM | TGI (M14 melanoma): > 100 µM | TGI (NCI-H226 lung): > 100 µM | TGI (786-0 renal): > 100 µM
